Laboratory results as given in patent US11117932B2, “Peptides for specific inhibition of Jag 1-Notch 1 pathway” (The Hong Kong Polytechnic University, priority 2018, dated 2021).
Read-outs that look alike come from different tables or passages of the source. Residues, ends and D or L forms follow the SMILES beside them. No end group written: not given here.

Legend:
S1-M1-80 cells [1] = assay: cells; type: cell-based, human
Experimental: (§1) HCT-116, HCT-15, S1-M1-80, S1, L929, HEK293T-Jagged-1 were seeded in each well of a 96-well plate with a series of concentrations (a serial dilution from 1000μM to 0.5 μM) of peptides or drugs including DAPT, Topotecan at 37° C. with 5% CO2 in a humidified incubator for 3 days. Percentage of survival was determined by MTS assay as described.

S1 = assay: cells; type: cell-based, human
Experimental: as §1

in vitro = type: cell-based; settings: mouse
Experimental: as §1

HEK-293T-Jagged-1 cells = type: cell-based, human
Experimental: as §1

S1-M1-80 cells [2] = assay: Clonogenicity assay, S1-M1-80; type: cell-based, human; settings: S1-M1-80, single agent 1 μM
Experimental: The procedure for colony formation assay consists of following steps. An appropriate number of cells per well were seeded on a 6-well plate in duplicate. The number of cells for seeding should be related to the aggressiveness of the treatment. The cells were incubated for 12 hours in a CO2 incubator at 37° C. and allow cells to attach to the plate. The cells were treated with peptides or (DAPT) to required concentrations. The cells were incubated in a in a CO2 incubator at 37° C. for about 10 days until cells in control well have formed colonies which are of a substantially good size (the minimum score is 100 cells per colony). After the incubation, the medium was removed and cells were rinsed with 5 ml 1×PBS (phosphate buffered saline. pH 7.2). The cells were then fixed with 1 ml methanol at room temperature for 10 min. After fixation, the cells were stained with 0.5% crystal violet solution and incubated at room temperature for 1 h. After staining, the plates were immersed in deionized water to rinse off crystal violet and air-dried at room temperature for overnight. The dry plates were pictured with scanner. The number of colonies in each well was counted by cell counter software.

Jag1-Notch1 signalling = assay: Co-culture Notch luciferase reporter assay, Jag1-induced; type: cell-based, human; settings: peptides 25 μM
Experimental: Jag1-Notch interaction is measured using a co-culture assay with one cell line expressing the Notch ligand Jagged1 (Jag1) and a second expressing Notch (either Notch1 or Notch2). A firefly luciferase reporter plasmid with 12 upstream CBF-1 binding site was transfected into signalling-receiving cells to report on Notch signalling (FIG. 1D). Peptides were tested for their activity in inhibiting Jag1-induced Notch signalling. Complete inhibition is equivalent to the background signal seen without induction (−Jag1). […] N1 (SEQ ID NO: 10) is a 15-mer derived from the EGF-like repeat 12 of Notch1 (C467-G481). This is consistent with the structural information that EGF-like repeat 12 of Notch1 is near the MNNL domain of Jag1 (FIGS. 1B and C).
Specificity of N1 (SEQ ID NO: 10) peptide in inhibiting different Notch ligand-induced Notch signaling was investigated using in vitro co-culture assay. HEK293T or CHO cells expressing Notch ligand (either Jag1, DLL1 or DLL4) are co-cultured with Notch1- or Notch2-expressing cells. Notch1 and Notch2 signalling can be measured by either luciferase reporter assay or by the formation of NICD1 and NICD2. […] Half inhibition is reached at between 50 to 100 μM. […] This contrasts with DAPT which affects all the above interactions.
HEK-293T-Jagged-1 cells were seeded in 24-well plates in triplicate per sample group, and human HCT-116 cells were seeded in one 60 mm dish. Cells were allowed to settle, and were transfected the following day after the medium was changed to be antibiotic free. HCT-116 cells were transfected with 12×CSL-Luc and Renilla-Luc, using Lipofectamine® 3000 (Invitrogen™), according to the manufacturer's instructions. After 24 hours, HCT-116 cells were scraped and 2.5×10^4 cells in 1 mL complete medium per well were added to both 24-well plates. Peptides were treated to cells with the desired concentrations. N—[N-(3,5-difluorophenacetyl)-L-alanyl]-S-phenylglycine t-butyl ester (DAPT) was used as positive control. Cells were co-cultured for 12 hours before measure the luciferase activity. After incubation, cells were lysed with luciferase lysis buffer. Notch activity in cells expressing the 12×CSL-Luc reporter construct was measured by a luciferase assay using Dual-Luciferase® Reporter Assay System (Promega).

| Compound | IC50 (S1-M1-80 cells [1]) | IC50 (S1) | further results |
| --- | --- | --- | --- |
| CLDQIG [Peptide N109, CLDQIG] | > 100 µM | > 100 µM |  |
| CC[C@H](C)[C@H](NC(=O)[C@H](CCC(N)=O)NC(=O)[C@H](CC(=O)O)NC(=O)[C@H](CC(C)C)NC(=O)[C@H](CS)NC(=O)[C@@H](N)Cc1ccc(O)cc1)C(=O)NCC(=O)N[C@@H](CCC(=O)O)C(=O)N[C@@H](Cc1ccccc1)C(=O)N[C@@H](CCC(N)=O)C(=O)N[C@@H](CS)C(=O)N[C@H](C(=O)N[C@@H](CS)C(=O)N[C@@H](CCC(=O)O)C(=O)O)[C@@H](C)CC [N102T466Y-M479E, YCLDQIGEFQCICE] (H-YCLDQIGEFQCICE-OH; N-terminus and C-terminus assumed) | 14.9 ± 4.8 µM |  | IC50 at 3 days (in vitro): > 100 µM; IC50 (HEK-293T-Jagged-1 cells): > 100 µM |
| CC[C@@]1(O)C(=O)OCc2c1cc1n(c2=O)Cc2cc3c(CN(C)C)c(O)ccc3nc2-1 [Topotecan, reference compound] |  |  | colony formation (S1-M1-80 cells [2]): 1263 colonies/well; IC50 (S1-M1-80 cells [1]; Homo sapiens, 72 h, S1-M1-80 cells, 3 days, MTS, read-out: IC50 (μM) s1-m1-80): 14.9 ± 0.1 µM; IC50 (S1; Homo sapiens, 72 h, S1 cells, 3 days, MTS, read-out: IC50 (μM) S1): 0.19 ± 0.05 µM |
| CC[C@H](C)[C@H](NC(=O)[C@H](CCC(N)=O)NC(=O)[C@H](CC(=O)O)NC(=O)[C@H](CC(C)C)NC(=O)[C@@H](N)CS)C(=O)NCC(=O)N[C@@H](CCC(=O)O)C(=O)N[C@@H](Cc1ccccc1)C(=O)N[C@@H](CCC(N)=O)C(=O)N[C@@H](CS)C(=O)O [Peptide N105, CLDQIGEFQC] (H-CLDQIGEFQC-OH; N-terminus and C-terminus assumed) | > 100 µM | > 100 µM |  |
| CC[C@H](C)[C@H](N)C(=O)NCC(=O)N[C@@H](CCC(=O)O)C(=O)N[C@@H](Cc1ccccc1)C(=O)N[C@@H](CCC(N)=O)C(=O)N[C@@H](CS)C(=O)N[C@H](C(=O)N[C@@H](CS)C(=O)N[C@@H](CCSC)C(=O)N1CCC[C@H]1C(=O)NCC(=O)O)[C@@H](C)CC [Peptide N112, IGEFQCICMPG] (H-IGEFQCICMPG-OH; N-terminus and C-terminus assumed) | > 100 µM | > 100 µM |  |
| CC[C@H](C)[C@H](N)C(=O)N[C@@H](CS)C(=O)N[C@@H](CC(C)C)C(=O)N[C@@H](CC(=O)O)C(=O)N[C@@H](CCC(N)=O)C(=O)N[C@H](C(=O)NCC(=O)N[C@@H](CCC(=O)O)C(=O)N[C@@H](Cc1ccccc1)C(=O)N[C@@H](CCC(N)=O)C(=O)N[C@@H](CS)C(=O)N[C@H](C(=O)N[C@@H](CS)C(=O)N[C@@H](CCC(=O)O)C(=O)O)[C@@H](C)CC)[C@@H](C)CC [N102T466I-M479E, ICLDQIGEFQCICE] (H-ICLDQIGEFQCICE-OH; N-terminus and C-terminus assumed) | 15.2 ± 4.2 µM |  | IC50 at 3 days (in vitro): > 100 µM; IC50 (HEK-293T-Jagged-1 cells): > 100 µM |
| CC[C@H](C)[C@H](NC(=O)[C@H](CS)NC(=O)[C@H](CCC(N)=O)NC(=O)[C@H](Cc1ccccc1)NC(=O)[C@H](CCC(=O)O)NC(=O)CNC(=O)[C@H](Cc1c[nH]c2ccccc12)NC(=O)[C@H](CCC(N)=O)NC(=O)[C@H](CC(=O)O)NC(=O)[C@H](CC(C)C)NC(=O)[C@@H](N)CS)C(=O)N[C@@H](CS)C(=O)N[C@@H](CCSC)C(=O)O [Peptide N102I471W, CLDQWGEFQCICM] (H-CLDQWGEFQCICM-OH; N-terminus and C-terminus assumed) | > 50 µM | > 100 µM | inhibition of Jag1-induced Notch signaling compared with N1 (Jag1-Notch1 signalling): slight improvement |
| CC[C@H](C)[C@H](NC(=O)[C@H](CCC(N)=O)NC(=O)[C@H](CC(=O)O)NC(=O)[C@H](CC(C)C)NC(=O)[C@@H](N)CS)C(=O)NCC(=O)N[C@@H](CCC(=O)O)C(=O)N[C@@H](Cc1ccccc1)C(=O)N[C@@H](CCC(N)=O)C(=O)N[C@@H](CS)C(=O)N[C@H](C(=O)N[C@@H](CS)C(=O)N[C@@H](CCSC)C(=O)O)[C@@H](C)CC [Peptide N102, CLDQIGEFQCICM] (H-CLDQIGEFQCICM-OH; N-terminus and C-terminus assumed) | 10.2 ± 0.4 µM | > 50 µM | inhibition of Jag1-induced Notch signaling compared with N1 (Jag1-Notch1 signalling): stronger inhibitory effect than N1 |
| CLDQIGEFQ [Peptide N106, CLDQIGEFQ] | > 100 µM | > 100 µM |  |
| CC[C@H](C)[C@H](NC(=O)[C@H](CS)NC(=O)[C@H](CCC(N)=O)NC(=O)[C@H](Cc1ccccc1)NC(=O)[C@H](CCC(=O)O)NC(=O)CNC(=O)[C@@H](NC(=O)[C@H](CCC(N)=O)NC(=O)[C@H](CC(=O)O)NC(=O)[C@H](CC(C)C)NC(=O)[C@@H](N)CS)[C@@H](C)CC)C(=O)O [Peptide N104, CLDQIGEFQCI] (H-CLDQIGEFQCI-OH; N-terminus and C-terminus assumed) | 28.4 ± 0.6 µM | > 50 µM | inhibition of Jag1-induced Notch signaling compared with N1 (Jag1-Notch1 signalling): stronger inhibitory effect than N1 |
| CC[C@H](C)[C@H](NC(=O)[C@H](CCC(N)=O)NC(=O)[C@H](CC(=O)O)NC(=O)[C@H](CC(C)C)NC(=O)[C@@H](N)CS)C(=O)NCC(=O)N[C@@H](CCC(=O)O)C(=O)N[C@@H](Cc1ccccc1)C(=O)N[C@@H](CCC(N)=O)C(=O)N[C@@H](CS)C(=O)N[C@H](C(=O)N[C@@H](CS)C(=O)O)[C@@H](C)CC [Peptide N103, CLDQIGEFQCIC] (H-CLDQIGEFQCIC-OH; N-terminus and C-terminus assumed) | > 50 µM | > 100 µM |  |
| CC[C@H](C)[C@H](NC(=O)[C@H](CCC(N)=O)NC(=O)[C@H](CC(=O)O)NC(=O)[C@H](CC(C)C)NC(=O)[C@@H](N)CS)C(=O)NCC(=O)N[C@@H](CCC(=O)O)C(=O)N[C@@H](Cc1ccccc1)C(=O)N[C@@H](CCC(N)=O)C(=O)N[C@@H](CS)C(=O)N[C@H](C(=O)N[C@@H](CS)C(=O)N[C@@H](CCSC)C(=O)N1CCC[C@H]1C(=O)O)[C@@H](C)CC [Peptide N101, CLDQIGEFQCICMP] (H-CLDQIGEFQCICMP-OH; N-terminus and C-terminus assumed) | 14.1 ± 0.7 µM | > 50 µM |  |
| CLDQIGE [Peptide N108, CLDQIGE] | > 100 µM | > 100 µM |  |
| CC[C@H](C)[C@H](NC(=O)[C@H](CCC(N)=O)NC(=O)[C@H](CC(=O)O)NC(=O)[C@H](CC(C)C)NC(=O)[C@H](CS)NC(=O)[C@@H](N)CC(C)C)C(=O)NCC(=O)N[C@@H](CCC(=O)O)C(=O)N[C@@H](Cc1ccccc1)C(=O)N[C@@H](CCC(N)=O)C(=O)N[C@@H](CS)C(=O)N[C@H](C(=O)N[C@@H](CS)C(=O)N[C@@H](CCC(=O)O)C(=O)O)[C@@H](C)CC [N102T466L-M479E, LCLDQIGEFQCICE] (H-LCLDQIGEFQCICE-OH; N-terminus and C-terminus assumed) | 5.4 ± 1.2 µM |  | IC50 at 3 days (in vitro): > 100 µM; IC50 (HEK-293T-Jagged-1 cells): > 100 µM |
| CC[C@H](C)[C@H](NC(=O)[C@H](CCC(N)=O)NC(=O)[C@H](CC(=O)O)NC(=O)[C@H](CC(C)C)NC(=O)[C@H](CS)NC(=O)[C@@H](N)Cc1ccccc1)C(=O)NCC(=O)N[C@@H](CCC(=O)O)C(=O)N[C@@H](Cc1ccccc1)C(=O)N[C@@H](CCC(N)=O)C(=O)N[C@@H](CS)C(=O)N[C@H](C(=O)N[C@@H](CS)C(=O)N[C@@H](CCC(=O)O)C(=O)O)[C@@H](C)CC [N102T466F-M479E, FCLDQIGEFQCICE] (H-FCLDQIGEFQCICE-OH; N-terminus and C-terminus assumed) | 43.9 ± 3.4 µM |  | IC50 at 3 days (in vitro): > 100 µM; IC50 (HEK-293T-Jagged-1 cells): > 100 µM |
| CLDQIGEF [Peptide N107, CLDQIGEF] | > 100 µM | > 100 µM |  |
| CC(C)C[C@H](NC(=O)[C@@H](N)CS)C(=O)N[C@@H](CC(=O)O)C(=O)N[C@@H](CCC(N)=O)C(=O)O [Peptide N111, CLDQ] (H-CLDQ-OH; N-terminus and C-terminus assumed) | > 100 µM | > 100 µM |  |
